Two compounds from ChEMBL document CHEMBL4507276 (2021) can be followed below.

Conditions in all cases: Compound concentration 1000.0 nM
Assay [1] deals with Serine/threonine-protein kinase Nek5 (Homo sapiens) (UniProt Q6P3R8).
The target in assay [2] is Serine/threonine-protein kinase 16 (Homo sapiens) (UniProt O75716).
Assay [3] addresses LIM domain kinase 1 (Homo sapiens) (UniProt P53667).
The target in assay [4] is Uncharacterized serine/threonine-protein kinase SBK3 (Homo sapiens) (UniProt P0C264).
Sequence of Uncharacterized serine/threonine-protein kinase SBK3 (Homo sapiens) (P0C264 whole entry): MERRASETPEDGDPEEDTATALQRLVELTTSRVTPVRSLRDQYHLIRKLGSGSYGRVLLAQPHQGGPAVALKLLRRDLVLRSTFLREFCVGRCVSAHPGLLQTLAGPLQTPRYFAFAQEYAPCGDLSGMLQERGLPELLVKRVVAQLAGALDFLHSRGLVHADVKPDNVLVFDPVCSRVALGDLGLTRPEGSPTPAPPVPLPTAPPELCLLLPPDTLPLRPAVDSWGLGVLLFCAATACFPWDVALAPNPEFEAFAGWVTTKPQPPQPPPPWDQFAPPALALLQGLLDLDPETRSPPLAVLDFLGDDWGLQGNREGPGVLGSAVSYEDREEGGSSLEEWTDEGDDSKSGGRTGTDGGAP
The target in assay [5] is T1, Serine/threonine-protein kinase NLK (Homo sapiens) (UniProt Q9UBE8).
T1 sequence (whole entry): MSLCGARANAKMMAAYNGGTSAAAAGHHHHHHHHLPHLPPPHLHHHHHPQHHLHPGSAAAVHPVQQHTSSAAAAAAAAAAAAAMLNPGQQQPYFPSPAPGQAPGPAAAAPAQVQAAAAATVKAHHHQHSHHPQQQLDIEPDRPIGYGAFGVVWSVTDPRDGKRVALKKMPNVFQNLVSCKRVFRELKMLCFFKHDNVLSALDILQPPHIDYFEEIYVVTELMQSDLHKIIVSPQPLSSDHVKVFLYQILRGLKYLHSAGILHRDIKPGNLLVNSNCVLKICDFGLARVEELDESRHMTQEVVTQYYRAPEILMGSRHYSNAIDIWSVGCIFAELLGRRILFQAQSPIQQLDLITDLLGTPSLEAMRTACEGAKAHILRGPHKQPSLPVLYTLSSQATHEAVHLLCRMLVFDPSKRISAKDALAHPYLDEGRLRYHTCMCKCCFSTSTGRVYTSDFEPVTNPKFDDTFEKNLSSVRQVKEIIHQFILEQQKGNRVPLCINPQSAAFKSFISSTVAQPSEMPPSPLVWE

The target of assay [6] is Cyclin-dependent kinase-like 2 (Homo sapiens) (UniProt Q92772).
Sequence of Cyclin-dependent kinase-like 2 (Homo sapiens) (Q92772 whole entry): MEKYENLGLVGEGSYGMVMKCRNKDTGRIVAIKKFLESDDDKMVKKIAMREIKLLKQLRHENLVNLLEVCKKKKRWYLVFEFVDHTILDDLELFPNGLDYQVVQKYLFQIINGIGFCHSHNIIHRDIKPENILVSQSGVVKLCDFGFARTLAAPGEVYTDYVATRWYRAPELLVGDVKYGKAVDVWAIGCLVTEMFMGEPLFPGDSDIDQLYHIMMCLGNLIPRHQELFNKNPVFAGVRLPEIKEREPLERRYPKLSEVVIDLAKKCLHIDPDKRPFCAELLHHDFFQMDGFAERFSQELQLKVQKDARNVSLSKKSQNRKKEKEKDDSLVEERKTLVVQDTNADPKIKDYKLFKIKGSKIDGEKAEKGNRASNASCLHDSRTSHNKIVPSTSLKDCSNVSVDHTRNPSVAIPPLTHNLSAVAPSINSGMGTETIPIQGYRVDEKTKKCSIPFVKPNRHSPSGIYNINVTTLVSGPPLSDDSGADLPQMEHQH
The target of assay [7] is T2, Mitogen-activated protein kinase kinase kinase 5 (Homo sapiens) (UniProt Q99683).
T2 sequence (whole entry): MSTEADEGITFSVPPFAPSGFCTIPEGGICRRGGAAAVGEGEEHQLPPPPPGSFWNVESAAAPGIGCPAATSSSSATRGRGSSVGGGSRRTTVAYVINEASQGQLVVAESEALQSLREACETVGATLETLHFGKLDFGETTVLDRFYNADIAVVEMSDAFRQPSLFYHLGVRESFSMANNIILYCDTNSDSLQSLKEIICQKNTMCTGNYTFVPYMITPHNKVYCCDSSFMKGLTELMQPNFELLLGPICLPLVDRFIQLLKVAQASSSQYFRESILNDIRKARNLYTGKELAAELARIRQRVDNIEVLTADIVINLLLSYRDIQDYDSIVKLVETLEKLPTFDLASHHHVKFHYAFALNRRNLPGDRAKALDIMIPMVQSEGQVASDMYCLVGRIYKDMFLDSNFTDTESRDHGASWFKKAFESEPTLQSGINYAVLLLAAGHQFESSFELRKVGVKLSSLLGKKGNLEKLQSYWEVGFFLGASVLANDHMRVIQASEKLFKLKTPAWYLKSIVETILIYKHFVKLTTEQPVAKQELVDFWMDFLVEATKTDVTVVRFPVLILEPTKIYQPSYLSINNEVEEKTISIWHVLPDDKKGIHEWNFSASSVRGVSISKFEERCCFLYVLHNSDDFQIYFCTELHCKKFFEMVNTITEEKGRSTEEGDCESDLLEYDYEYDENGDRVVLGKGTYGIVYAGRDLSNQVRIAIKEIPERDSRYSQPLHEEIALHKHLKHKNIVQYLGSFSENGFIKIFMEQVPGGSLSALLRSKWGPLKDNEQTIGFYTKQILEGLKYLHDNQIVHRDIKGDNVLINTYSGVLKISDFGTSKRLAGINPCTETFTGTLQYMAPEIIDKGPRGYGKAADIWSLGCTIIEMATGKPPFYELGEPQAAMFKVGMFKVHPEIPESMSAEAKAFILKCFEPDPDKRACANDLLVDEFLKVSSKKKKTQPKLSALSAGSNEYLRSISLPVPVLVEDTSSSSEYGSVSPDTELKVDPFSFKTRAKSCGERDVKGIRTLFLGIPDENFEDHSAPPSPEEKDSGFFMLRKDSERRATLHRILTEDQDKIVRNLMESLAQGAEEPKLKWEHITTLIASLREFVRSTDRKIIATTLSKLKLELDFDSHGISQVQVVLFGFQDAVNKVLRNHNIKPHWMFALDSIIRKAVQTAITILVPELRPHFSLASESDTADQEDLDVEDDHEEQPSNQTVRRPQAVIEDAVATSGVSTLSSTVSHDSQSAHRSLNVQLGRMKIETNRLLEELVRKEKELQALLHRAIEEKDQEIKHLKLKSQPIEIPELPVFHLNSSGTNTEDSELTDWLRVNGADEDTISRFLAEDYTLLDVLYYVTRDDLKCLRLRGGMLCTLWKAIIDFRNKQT

Assay [8] concerns Phosphatidylinositol 4,5-bisphosphate 3-kinase catalytic subunit alpha isoform (Homo sapiens), P42336 [M1043I].
Sequence of Phosphatidylinositol 4,5-bisphosphate 3-kinase catalytic subunit alpha isoform (Homo sapiens), P42336 [M1043I] (P42336 whole entry M1043I, canonical isoform): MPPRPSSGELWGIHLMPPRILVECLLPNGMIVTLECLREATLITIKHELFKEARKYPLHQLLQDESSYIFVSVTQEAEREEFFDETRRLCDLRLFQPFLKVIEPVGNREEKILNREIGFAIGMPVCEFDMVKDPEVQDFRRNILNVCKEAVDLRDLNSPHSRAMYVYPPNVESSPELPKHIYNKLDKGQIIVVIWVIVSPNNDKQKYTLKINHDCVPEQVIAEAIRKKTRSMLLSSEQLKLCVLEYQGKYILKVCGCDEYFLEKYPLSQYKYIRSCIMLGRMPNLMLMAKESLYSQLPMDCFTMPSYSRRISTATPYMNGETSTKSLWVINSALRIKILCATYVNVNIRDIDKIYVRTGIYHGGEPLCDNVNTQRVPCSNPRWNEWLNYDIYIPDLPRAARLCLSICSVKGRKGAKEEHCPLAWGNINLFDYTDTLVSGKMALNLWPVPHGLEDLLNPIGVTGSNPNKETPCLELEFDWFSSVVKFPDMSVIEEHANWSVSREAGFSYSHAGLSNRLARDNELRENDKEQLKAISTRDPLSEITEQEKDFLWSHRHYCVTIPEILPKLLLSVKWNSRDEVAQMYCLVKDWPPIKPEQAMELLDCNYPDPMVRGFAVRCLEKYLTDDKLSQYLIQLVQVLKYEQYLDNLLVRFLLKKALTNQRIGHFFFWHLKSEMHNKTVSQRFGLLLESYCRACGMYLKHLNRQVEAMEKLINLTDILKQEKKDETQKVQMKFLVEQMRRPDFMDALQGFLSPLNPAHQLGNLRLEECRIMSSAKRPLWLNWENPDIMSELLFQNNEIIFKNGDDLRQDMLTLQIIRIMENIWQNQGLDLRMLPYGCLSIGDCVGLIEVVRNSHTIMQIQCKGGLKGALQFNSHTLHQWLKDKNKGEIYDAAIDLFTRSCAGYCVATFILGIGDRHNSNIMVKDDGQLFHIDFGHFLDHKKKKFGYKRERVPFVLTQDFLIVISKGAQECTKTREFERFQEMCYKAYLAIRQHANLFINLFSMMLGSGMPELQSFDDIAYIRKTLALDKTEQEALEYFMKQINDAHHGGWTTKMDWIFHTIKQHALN
In assay [9] the target is Ephrin type-A receptor 5 (Homo sapiens) (UniProt P54756).
Sequence of Ephrin type-A receptor 5 (Homo sapiens) (P54756 whole entry): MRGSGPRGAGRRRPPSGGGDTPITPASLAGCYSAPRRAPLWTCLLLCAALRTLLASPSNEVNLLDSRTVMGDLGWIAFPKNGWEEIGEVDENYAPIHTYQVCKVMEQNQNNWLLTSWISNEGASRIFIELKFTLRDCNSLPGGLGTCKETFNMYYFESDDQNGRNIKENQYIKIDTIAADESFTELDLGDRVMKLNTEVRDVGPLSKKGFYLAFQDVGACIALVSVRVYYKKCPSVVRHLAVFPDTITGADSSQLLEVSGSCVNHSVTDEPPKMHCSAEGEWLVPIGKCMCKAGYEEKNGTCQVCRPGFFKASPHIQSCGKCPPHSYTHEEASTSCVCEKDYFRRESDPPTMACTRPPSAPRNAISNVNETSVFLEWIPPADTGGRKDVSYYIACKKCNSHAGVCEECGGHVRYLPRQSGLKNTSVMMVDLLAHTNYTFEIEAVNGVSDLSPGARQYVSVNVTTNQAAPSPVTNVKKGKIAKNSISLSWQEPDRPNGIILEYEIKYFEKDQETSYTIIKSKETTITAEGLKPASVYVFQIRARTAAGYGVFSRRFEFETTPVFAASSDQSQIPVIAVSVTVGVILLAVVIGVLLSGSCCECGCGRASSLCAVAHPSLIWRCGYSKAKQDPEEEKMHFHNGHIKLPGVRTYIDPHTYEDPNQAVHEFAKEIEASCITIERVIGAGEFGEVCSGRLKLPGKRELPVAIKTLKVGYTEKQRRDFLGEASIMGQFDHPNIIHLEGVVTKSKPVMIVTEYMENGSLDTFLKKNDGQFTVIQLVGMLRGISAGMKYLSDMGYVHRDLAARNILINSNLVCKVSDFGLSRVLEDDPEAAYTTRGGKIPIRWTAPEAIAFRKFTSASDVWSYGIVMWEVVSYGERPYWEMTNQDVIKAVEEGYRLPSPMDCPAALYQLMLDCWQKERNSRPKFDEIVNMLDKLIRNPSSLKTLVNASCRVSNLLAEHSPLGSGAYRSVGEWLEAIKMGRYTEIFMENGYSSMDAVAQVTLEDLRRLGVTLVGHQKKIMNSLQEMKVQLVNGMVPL
Assay [10] deals with Mast/stem cell growth factor receptor Kit (Homo sapiens) (UniProt P10721).
Sequence of Mast/stem cell growth factor receptor Kit (Homo sapiens) (P10721 whole entry): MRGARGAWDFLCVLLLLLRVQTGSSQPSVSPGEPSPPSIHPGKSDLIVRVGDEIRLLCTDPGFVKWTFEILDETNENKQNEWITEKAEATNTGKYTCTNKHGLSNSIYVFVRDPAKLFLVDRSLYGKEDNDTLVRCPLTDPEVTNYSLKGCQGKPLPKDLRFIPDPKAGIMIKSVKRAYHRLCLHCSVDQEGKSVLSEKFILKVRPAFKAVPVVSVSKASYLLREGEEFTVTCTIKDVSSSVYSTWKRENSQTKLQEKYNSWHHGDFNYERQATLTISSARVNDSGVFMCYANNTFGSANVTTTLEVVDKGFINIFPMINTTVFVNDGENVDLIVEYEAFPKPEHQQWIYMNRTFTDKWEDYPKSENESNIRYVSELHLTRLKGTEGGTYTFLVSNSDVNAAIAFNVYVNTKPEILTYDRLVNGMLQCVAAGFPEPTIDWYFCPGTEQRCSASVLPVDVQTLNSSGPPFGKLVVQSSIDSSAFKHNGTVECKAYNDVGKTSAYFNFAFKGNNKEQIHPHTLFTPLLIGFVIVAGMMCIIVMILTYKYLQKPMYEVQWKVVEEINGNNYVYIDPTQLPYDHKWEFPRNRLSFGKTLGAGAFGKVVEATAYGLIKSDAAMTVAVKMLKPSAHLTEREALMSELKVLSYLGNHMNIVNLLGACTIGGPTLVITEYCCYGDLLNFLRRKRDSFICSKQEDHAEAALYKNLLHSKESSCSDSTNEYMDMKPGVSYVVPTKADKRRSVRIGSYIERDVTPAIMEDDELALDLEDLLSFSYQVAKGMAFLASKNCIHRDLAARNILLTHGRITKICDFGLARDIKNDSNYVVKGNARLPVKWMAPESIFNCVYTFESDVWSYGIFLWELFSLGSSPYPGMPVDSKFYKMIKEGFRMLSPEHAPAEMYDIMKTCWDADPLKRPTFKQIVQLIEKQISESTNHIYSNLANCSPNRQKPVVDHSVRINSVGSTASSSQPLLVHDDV
In assay [11] the test system is Epidermal growth factor receptor (Homo sapiens), P00533 [L858R].

Sequence of Serine/threonine-protein kinase Nek5 (Homo sapiens) (Q6P3R8 whole entry): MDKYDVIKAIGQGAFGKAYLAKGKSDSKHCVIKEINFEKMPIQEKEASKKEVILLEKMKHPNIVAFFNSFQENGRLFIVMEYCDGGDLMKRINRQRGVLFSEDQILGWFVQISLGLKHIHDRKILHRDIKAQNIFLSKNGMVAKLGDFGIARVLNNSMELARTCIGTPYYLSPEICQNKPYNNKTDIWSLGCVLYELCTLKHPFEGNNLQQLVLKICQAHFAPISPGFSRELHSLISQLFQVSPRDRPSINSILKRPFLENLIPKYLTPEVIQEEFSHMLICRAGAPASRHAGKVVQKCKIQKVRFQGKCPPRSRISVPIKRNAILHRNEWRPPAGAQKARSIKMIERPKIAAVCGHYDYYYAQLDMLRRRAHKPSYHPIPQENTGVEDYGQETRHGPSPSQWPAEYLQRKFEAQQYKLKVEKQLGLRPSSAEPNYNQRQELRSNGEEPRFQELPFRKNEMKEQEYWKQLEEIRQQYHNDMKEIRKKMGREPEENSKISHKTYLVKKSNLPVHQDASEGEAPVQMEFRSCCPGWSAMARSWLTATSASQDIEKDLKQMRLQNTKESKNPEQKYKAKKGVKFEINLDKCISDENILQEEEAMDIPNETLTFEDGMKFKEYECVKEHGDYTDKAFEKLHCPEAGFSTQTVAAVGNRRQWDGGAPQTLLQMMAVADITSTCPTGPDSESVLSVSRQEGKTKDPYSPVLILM
Sequence of Serine/threonine-protein kinase 16 (Homo sapiens) (O75716 whole entry, the tested form may be a part): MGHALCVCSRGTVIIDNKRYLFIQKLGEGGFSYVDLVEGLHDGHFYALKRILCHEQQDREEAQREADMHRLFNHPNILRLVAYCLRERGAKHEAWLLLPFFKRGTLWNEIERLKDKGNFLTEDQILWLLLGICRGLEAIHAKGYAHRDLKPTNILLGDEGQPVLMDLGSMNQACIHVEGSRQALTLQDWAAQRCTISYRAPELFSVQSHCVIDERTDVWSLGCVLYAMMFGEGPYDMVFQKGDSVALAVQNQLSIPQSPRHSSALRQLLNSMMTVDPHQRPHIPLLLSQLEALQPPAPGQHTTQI

For the compound `CN(C)C(=O)Cn1cc(-c2nc(C3(c4ccc(-c5cnc(N)nc5)cc4)CC3)no2)cn1` [BI 0153], the residual activity is 89% in [1]; 100% in assay [2]; 100% in assay [3]; 99% in [4]; 94% in assay [5]; 100% in assay [6]. The residual activity is 91% in [7]; 100% in assay [8]; 41% in assay [9]; 77% in assay [10]; 86% in assay [11].

For `CN(C)C(=O)Cn1cc(-c2nc([C@@](C)(c3ccc(-c4cnc(N)nc4)cc3)C3CC3)no2)cn1` [BI 665915], the residual activity in assay [1] was 89%; in [2], 100%; in assay [3] it was 81%; in assay [4], 71%; in assay [5], 95%; in [6], 100%. Moreover, the residual activity in [7] is 99%; in assay [8] it was 100%; in assay [9], 100%; in [10], 86%; in assay [11] it was 100%.
